Test results from patent US5773446A, “Diamino pyrimidines” (Hoffmann-La Roche Inc., priority 1995, dated 1998).

Columns and labels:
[1] = target: purified DHFR of the reference strain S. aureus ATCC 25923 (Staphylococcus aureus, UniProt P0A017); assay: Inhibition of purified DHFR of reference strain S. aureus ATCC 25923; format: biochemical
Source text: (§1) The inhibition of this enzyme was taken as a measurement for the antibacterial activity.

[2] = target: T1, purified DHFR of the opportunistic pathogen P. carinii (Pneumocystis carinii, UniProt P16184); assay: biochemical
T1 sequence (P16184 1-206): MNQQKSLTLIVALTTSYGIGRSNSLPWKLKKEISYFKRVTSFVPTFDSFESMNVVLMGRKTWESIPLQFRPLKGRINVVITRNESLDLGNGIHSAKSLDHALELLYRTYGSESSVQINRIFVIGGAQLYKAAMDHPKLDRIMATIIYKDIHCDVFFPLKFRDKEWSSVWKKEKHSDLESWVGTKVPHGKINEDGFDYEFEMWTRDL
Source text: as §1

Chain of purified DHFR of the reference strain S. aureus ATCC 25923 (P0A017 whole entry): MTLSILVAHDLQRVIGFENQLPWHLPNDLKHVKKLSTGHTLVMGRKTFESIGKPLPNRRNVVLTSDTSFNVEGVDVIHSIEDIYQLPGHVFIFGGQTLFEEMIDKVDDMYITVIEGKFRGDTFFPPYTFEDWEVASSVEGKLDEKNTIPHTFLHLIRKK

Compound `COc1cc(Cc2cnc(N)nc2N)c2c(c1OC)OC(CC(C)C)C=C2` (racemic) [Example 9, (RS)-5-(2-isobutyl-7,8-dimethoxy-2H-1-benzopyran-5-ylmethyl)-pyrimidine-2,4-diamine] has an IC50 [1] of 1 nM and an IC50 [2] of 3000 nM.

Compound `COc1c(OCCCC(=O)O)cc(Cc2cnc(N)nc2N)c2c1OCC=C2` [Example 10, 4-[5-(2,4-diamino-pyrimidin-5-ylmethyl)-8-methoxy-2H-1-benzopyran-7-yloxy]-butyric acid] has an IC50 [1] of 5 nM and an IC50 [2] of 40 nM.

In the case of `COc1cc(Cc2cnc(N)nc2N)c2c(c1OC)OC(C(C)C)C=C2` (racemic) [Example 8, (RS)-5-(2-isopropyl-7,8-dimethoxy-2H-1-benzopyran-5-ylmethyl)-pyrimidine-2,4-diamine], the IC50 [1] is reported as 1 nM and the IC50 [2] is reported as 1000 nM.

For `CCCCCC1C=Cc2c(Cc3cnc(N)nc3N)cc(OC)c(OC)c2O1` (racemic) [Example 7, (RS)-5-(7,8-dimethoxy-2-pentyl-2H-1-benzopyran-5-ylmethyl)-pyrimidine-2,4-diamine], the IC50 [1] was 16 nM and the IC50 [2] was 2800 nM.

With `COc1cc(Cc2cnc(N)nc2N)c2c(c1OC)OC(CCCC(=O)O)C=C2` (racemic) [Example 6, (RS)-4-[5-(2,4-diamino-pyrimidin-5-ylmethyl)-7,8-dimethoxy-2H-1-benzopyran-2-yl]-butyric acid] the IC50 [1] was 5 nM and the IC50 [2] was 220 nM.
